The first assay addresses T1, mushroom tyrosinase (Agaricus bisporus, UniProt C7FF04). In words: Bio-chromatographic assay: HPLC-ESI-QTOF-MS/MS of extract with and without tyrosinase. Format: binding. The settings on record: chemometric comparison, p < 0.001.
T1 sequence (C7FF04 1-392): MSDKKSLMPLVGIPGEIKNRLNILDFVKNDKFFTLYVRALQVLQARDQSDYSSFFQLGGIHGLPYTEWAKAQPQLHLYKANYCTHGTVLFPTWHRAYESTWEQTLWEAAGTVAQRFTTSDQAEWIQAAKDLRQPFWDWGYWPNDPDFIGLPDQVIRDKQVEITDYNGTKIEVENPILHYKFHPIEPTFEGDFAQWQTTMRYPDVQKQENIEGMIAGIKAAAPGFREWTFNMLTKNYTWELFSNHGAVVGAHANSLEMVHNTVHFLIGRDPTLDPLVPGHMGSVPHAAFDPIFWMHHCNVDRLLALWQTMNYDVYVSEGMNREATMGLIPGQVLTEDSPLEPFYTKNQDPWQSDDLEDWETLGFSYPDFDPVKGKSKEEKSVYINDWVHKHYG
Regarding `O=C(O)CC(OC(=O)/C=C/c1ccc(O)c(O)c1)C(=O)O` (centres unmarked) [caffeoylmalic acid, Caffeoylmalic acid], the “Presence among m/z features differentiating extract before and after tyrosinase treatment” value is reported as “present on the list of the differentiating molecular features”.
On the same count and under the same terms, the same measure for `O=C(/C=C/c1ccc(O)cc1)O[C@@H](C(=O)O)[C@@H](O)C(=O)O` [coumaroyl-tartaric acid, p-Coumaroyltartaric acid]: “present on the list of the differentiating molecular features”; for `O=C(O)[C@]1(O)C[C@@H](O)[C@@H](O)[C@H](O)C1` [quinic acid, Quinic acid]: “present on the list of the differentiating molecular features”; for `COc1cc(/C=C/C(=O)O)cc(OC)c1O` [sinapic acid, Sinapic acid]: “present on the list of the differentiating molecular features”.
Consider Isopropylmalic acid, for which the “Presence among m/z features differentiating extract before and after tyrosinase treatment” value was “present on the list of the differentiating molecular features”.
As to Syringetin glucoside, the “Presence among m/z features differentiating extract before and after tyrosinase treatment” value is on record as “visible in the list of differentiating signals”.

The target of another assay is T1, mushroom tyrosinase. In words: Spectrophotometric tyrosinase inhibition assay with L-DOPA as substrate. Format: biochemical. As to conditions: standards 0.015 to 5.0 mg/mL.
Description: The inhibitory properties of the extracts against tyrosinase were evaluated using in an in vitro assay with the mushroom tyrosinase enzyme and L-DOPA as a substrate (Sigma Aldrich, St. Louis, MO, USA). The assay was performed based on the method by Uchida and colleagues [43]. Briefly, 100 µL of 100 mM phosphate buffer (pH 6.8) and 20 µL of the diluted extracts of studied plants (1 mg/mL solution in DMSO) were pipetted into a 96 well microwell. Afterwards, 20 μL of the mushroom tyrosinase (500 U/mL) dissolved in phosphate buffer (pH 6.8) was added to each microwell and the mixture was pre-incubated for 10 min at room temperature. After incubation, 80 µL of 8 mM L-DOPA was added and the reaction was initiated and sustained at 25 °C. After 20 min, the absorbance was measured at 450 nm using a microplate reader Promega GloMax Explorer GM 3510 (Madison, MO, USA). The control sample (with 100% tyrosinase activity) contained the appropriate volume of the solvent (100 µL buffer plus 20 µL DMSO) instead of the extract. In both assays, the dopachrome formation was measured spectrophotometrically at λ = 450 nm, using a Promega microplate reader. The obtained values were corrected by the absorbance value of the background that was measured for the extracts without the mushroom tyrosinase and L-DOPA. Each sample was analyzed in three independent repetitions. […]
As to `COc1cc(/C=C/C(=O)O)ccc1O` [ferulic acid, Ferulic acid], half-maximal inhibition (IC50) was put at 0.484 µM.

The next assay concerns the target T1, mushroom tyrosinase. In words: Bio-chromatographic assay: HPLC-ESI-QTOF-MS/MS of extract with and without tyrosinase. Format: binding. As to conditions: aglycons in M. recutita extract; minute content, matrix effect. The method, then:
For the identification of single components responsible for interactions with tyrosinase enzymes, a bio-chromatographic assay was performed. For this purpose, two 0.5 mL portions of 1 mg/mL 50% EtOH extract of chamomile dissolved in water each were transferred to an Eppendorf vial of 2 mL. The sample coded as sample A was mixed with 0.5 mL of carbonate buffer prepared by dissolving 120 mg Na2CO3 and 12.5 mg NaHCO3 in 1000 mL of water and later diluted 40 times, whereas sample B was mixed with 0.5 mL of tyrosinase enzyme (500 U/mL) in the same carbonate buffer and diluted 40 times as sample A was.
Both samples A and B were filtered through nylon syringe filters (0.1 µm pore size) into autosampler vials and analyzed using an HPLC-ESI-QTOF-MS/MS instrument. The test was performed in triplicate. During the analysis of recorded data, the obtained chromatograms were subtracted from each other in the Mass Hunter Workstation Program to highlight the changes visible under the influence of the enzyme, and some of the potentially active components were tentatively identified thanks to high-resolution mass measurement, recorded MS/MS fragmentation patterns, and comparison with open mass databases (Metlin, HMDB, Mass Bank). Both injections—with and without the enzyme—were also compared using the Mass Profiler Professional Program (Agilent Technologies, Santa Clara, CA, USA). For this purpose, molecular feature extraction was carried out using the Profinder program v. 10.0.02 (Agilent Technologies, Santa Clara, CA, USA) to obtain a list of m/z values, retention times, and peak areas from the recorded injections, which were exported in profinder archive and detailed CSV formats for subsequent chemometric comparison. The data were filtered based on criteria including a mass tolerance of 10 ppm, retention time variation of 0.3 min, and a minimum peak area of 1% of the highest signal. The chemometric analysis performed directly within the program yielded 802 entities in positive ion mode and 715 in negative ion mode (p < 0.05), in a one-way ANOVA test with asymptotic p-value computation and Benjamini–Hochberg multiple testing correction.
`O=c1cc(-c2ccc(O)cc2)oc2cc(O)cc(O)c12` [apigenin, Apigenin]: the “Inhibitory properties in the bio-chromatographic assay” value is given as “did not show inhibitory properties”.
On to `O=c1cc(-c2ccc(O)c(O)c2)oc2cc(O)cc(O)c12` [luteolin, Luteolin], for which the “Inhibitory properties in the bio-chromatographic assay” value is on record as “did not show inhibitory properties”.

The assay is the same for the next values; noted with them: mass chromatograms with and without enzyme.
`O=c1c(O[C@@H]2OC[C@H](O)[C@H](O)[C@H]2O)c(-c2ccc(O)cc2)oc2cc(O)cc(O)c12` [kaempferol arabinoside, Kaempferol-3-O-alpha-L-arabinoside]: the “Peak height after reaction with tyrosinase” value is given as “marked decrease in the peak height”.
The same measure, in the same setting: the same measure for `O=C(O)CC(=O)OC[C@H]1O[C@@H](Oc2c(-c3ccc(O)cc3)oc3cc(O)cc(O)c3c2=O)[C@H](O)[C@@H](O)[C@@H]1O` [kaempferol malonylglucoside, Kaempferol 3-(6″-malonylglucoside)]: “marked decrease in the peak height”.

The assay is the same for the next values; noted with them: negative ion mode; negative peak = decrease in intensity on reaction with the enzyme.
As to `O=C(O)CC(O)(CC(=O)O)C(=O)O` [citric acid, Citric acid], the “Peak in subtracted chromatogram (extract with enzyme minus extract)” value is on record as “Large negative peaks”.
The same measure, in the same setting: the same measure for `O=C(O)[C@H](O)[C@@H](O)[C@H](O)[C@H](O)CO` [gluconic acid, Gluconic acid]: “Large negative peaks”; for `O=C(O)CC(O)C(=O)O` (centres unmarked) [malic acid, Malic acid]: “Large negative peaks”.
The same measure, in the same setting: the same measure for Feruloyl hexose: “Large negative peaks”; for Feruloyl-glucose isomers: “leading negative peak”.
Same read-out and setting: the same measure for “Protocatechuoylglucose [protocatechuoyl-glucose]”: “visible negative peak”.
